Converted amounts (≈) assume the structure as drawn. “Also recorded” adds a separate entry of the source.
Assays:
PI3K δ [1] = biological target: T1, PI3K δ (Homo sapiens, UniProt O00329); experiment: Plasma concentration for suppression of PI3K-δ (PK/PD); parameters: endogenous in cells; host or cells: RAJI (human Burkitt lymphoma)
Target sequence in this assay (O00329 whole entry): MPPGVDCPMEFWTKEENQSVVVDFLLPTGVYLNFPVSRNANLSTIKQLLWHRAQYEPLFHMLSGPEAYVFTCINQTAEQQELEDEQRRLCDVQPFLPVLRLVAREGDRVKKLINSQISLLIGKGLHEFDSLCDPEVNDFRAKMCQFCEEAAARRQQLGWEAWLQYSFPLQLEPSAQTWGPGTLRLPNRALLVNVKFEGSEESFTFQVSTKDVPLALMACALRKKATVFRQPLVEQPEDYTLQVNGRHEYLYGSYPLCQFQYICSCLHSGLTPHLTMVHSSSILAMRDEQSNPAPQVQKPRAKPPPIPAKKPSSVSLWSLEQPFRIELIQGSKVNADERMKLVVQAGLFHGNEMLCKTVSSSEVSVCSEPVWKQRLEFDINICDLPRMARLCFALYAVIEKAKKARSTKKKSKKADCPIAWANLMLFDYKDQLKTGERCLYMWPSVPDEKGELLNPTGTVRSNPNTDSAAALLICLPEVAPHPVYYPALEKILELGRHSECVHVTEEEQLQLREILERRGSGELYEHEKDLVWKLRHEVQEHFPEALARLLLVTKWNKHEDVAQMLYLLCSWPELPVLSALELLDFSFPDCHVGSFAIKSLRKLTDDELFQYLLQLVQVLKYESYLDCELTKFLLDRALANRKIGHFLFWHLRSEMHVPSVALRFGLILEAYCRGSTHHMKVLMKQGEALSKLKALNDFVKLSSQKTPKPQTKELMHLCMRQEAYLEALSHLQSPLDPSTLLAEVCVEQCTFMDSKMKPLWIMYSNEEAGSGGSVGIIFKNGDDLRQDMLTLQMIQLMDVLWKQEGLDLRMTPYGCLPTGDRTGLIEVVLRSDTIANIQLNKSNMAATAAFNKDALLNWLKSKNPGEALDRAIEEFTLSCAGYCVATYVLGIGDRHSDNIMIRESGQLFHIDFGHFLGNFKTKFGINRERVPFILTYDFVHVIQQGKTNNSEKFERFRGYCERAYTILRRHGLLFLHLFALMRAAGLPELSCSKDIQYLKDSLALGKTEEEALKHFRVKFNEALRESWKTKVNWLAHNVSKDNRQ
Target sequence in this assay (P27986 whole entry partner): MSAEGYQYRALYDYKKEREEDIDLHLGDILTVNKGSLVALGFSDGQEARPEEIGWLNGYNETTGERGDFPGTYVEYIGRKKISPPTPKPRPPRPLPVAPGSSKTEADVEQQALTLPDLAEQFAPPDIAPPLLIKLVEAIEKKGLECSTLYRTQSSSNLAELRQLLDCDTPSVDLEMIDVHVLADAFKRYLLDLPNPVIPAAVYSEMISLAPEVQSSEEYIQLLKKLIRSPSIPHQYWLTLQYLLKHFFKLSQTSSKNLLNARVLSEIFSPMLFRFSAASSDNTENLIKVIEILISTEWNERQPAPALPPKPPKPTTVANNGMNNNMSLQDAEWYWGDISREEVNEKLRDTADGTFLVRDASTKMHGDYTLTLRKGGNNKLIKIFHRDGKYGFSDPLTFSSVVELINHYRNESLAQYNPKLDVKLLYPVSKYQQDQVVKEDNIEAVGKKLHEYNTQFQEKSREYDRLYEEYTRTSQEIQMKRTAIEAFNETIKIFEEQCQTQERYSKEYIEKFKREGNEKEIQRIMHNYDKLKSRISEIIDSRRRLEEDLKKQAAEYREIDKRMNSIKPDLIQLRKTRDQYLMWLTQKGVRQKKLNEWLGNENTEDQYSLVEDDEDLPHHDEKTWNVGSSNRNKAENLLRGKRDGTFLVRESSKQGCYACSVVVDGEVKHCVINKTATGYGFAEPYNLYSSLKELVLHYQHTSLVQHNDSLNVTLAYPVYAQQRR

[2] = Phase 1 study in healthy subjects: pharmacokinetics (single dose, multiple dose, food effect, DDI); format: in vivo, human; details: for AUC(0-24): mean (% CV)
[3] = Phase 1 study in healthy subjects: safety and tolerability; format: in vivo
Protocol: Serial ECGs were performed at multiple time points after dosing in all study groups.
In addition, a rapid response was observed, assessed as reduction in CD63^+ expression on CCR3^+ basophils in an ex vivo anti-FcεR1 activation assay (FIG. 1-3). […] CD63^+ expression returned to baseline as plasma drug concentrations declined. […] The most common non-procedural AEs occurring in ≧2 subjects were headache (8% vs. 25% PLB), myalgia (6% vs. 8% PLB), and nasopharyngitis (6% vs. 0% PLB). […] No clinical significant findings in safety lab studies of ECGs were observed.

[4] = In vivo rat micronucleus assay
[5] = Tissue distribution of radiolabelled Compound 292 in rat; format: in vivo
[6] = Plasma protein binding in vitro, monkey; format: in vitro ADME; details: all concentrations tested
HH = experiment: CTCL cytotoxicity, 72 hours; format: cell-based; details: HH cells, vs MJ or HuT78
Protocol: (§1) MJ and HuT78 cells were grown in IMDM 20% FBS, and HH cells were grown in RPMI 10% FBS.

MJ = experiment: CTCL cytotoxicity, 72 hours; format: cell-based; details: MJ cells
Protocol: as §1

HuT78 = experiment: CTCL cytotoxicity, 72 hours; format: cell-based; details: HuT78 cells
Protocol: as §1

[7] = tested on: pAKT and Ki-67 expression in primary CLL cells; experiment: CLL cell proliferation with CD40L/IL-2/IL-10, four color FACS; format: cell-based; details: Homo sapiens, primary CLL cells stimulated with CD40L/IL-2/IL-10, n=2, read-out: EC50, inhibition of pAKT and Ki-67 expression
Protocol: Generally, CLL cells were seeded and incubated with proliferation cocktail (containing sCD40L, rH-IL 10 and rH-IL 2) in media. Then, four color FACS analysis was performed using antibodies to pAKT, Ki-67, CD19 and CD5.

human P-glycoprotein = biological target: T2, human P-glycoprotein (Homo sapiens, UniProt P08183); experiment: Interaction with human P-glycoprotein in Caco-2 cell monolayers; format: in vitro ADME
T2 construct: assessed in vitro using Caco-2 cell monolayers; endogenous in cells; host or cells: Caco-2 cell monolayers
T2 sequence (P08183 whole entry): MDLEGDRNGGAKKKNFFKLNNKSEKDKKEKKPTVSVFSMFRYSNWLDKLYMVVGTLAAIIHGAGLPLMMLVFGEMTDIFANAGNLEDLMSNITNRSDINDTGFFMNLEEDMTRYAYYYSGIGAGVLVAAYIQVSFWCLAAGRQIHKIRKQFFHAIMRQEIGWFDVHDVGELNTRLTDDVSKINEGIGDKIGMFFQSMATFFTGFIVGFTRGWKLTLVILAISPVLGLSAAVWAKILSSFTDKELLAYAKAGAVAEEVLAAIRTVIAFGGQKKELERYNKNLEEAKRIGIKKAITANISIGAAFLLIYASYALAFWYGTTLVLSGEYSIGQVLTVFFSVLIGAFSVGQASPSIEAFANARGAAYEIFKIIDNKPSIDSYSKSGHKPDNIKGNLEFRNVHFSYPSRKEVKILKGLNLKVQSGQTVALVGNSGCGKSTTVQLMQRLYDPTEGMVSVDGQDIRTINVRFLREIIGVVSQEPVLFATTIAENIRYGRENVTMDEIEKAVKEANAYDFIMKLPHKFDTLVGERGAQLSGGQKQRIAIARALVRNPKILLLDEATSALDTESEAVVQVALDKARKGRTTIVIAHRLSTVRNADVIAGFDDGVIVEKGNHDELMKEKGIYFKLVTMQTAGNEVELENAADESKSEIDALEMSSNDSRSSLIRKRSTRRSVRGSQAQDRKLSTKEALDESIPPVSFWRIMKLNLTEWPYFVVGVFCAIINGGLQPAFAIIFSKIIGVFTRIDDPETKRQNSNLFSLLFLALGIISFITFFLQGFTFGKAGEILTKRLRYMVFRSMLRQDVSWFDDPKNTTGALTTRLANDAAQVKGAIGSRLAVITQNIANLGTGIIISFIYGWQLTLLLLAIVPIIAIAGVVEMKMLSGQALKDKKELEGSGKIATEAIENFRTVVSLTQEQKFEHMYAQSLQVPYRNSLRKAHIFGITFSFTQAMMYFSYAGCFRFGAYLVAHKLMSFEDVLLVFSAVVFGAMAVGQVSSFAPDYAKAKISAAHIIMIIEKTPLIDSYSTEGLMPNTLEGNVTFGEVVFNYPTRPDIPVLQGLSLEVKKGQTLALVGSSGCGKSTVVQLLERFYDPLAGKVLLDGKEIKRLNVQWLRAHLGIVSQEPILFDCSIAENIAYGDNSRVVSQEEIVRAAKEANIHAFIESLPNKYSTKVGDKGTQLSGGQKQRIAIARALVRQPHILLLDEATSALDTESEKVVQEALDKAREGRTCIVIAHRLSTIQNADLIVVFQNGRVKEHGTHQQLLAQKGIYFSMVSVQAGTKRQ

hERG channel current = hERG channel current (Homo sapiens, UniProt Q12809); experiment: In vitro hERG assay; details: hERG IC50 fit
Sequence of hERG channel current (Q12809 whole entry): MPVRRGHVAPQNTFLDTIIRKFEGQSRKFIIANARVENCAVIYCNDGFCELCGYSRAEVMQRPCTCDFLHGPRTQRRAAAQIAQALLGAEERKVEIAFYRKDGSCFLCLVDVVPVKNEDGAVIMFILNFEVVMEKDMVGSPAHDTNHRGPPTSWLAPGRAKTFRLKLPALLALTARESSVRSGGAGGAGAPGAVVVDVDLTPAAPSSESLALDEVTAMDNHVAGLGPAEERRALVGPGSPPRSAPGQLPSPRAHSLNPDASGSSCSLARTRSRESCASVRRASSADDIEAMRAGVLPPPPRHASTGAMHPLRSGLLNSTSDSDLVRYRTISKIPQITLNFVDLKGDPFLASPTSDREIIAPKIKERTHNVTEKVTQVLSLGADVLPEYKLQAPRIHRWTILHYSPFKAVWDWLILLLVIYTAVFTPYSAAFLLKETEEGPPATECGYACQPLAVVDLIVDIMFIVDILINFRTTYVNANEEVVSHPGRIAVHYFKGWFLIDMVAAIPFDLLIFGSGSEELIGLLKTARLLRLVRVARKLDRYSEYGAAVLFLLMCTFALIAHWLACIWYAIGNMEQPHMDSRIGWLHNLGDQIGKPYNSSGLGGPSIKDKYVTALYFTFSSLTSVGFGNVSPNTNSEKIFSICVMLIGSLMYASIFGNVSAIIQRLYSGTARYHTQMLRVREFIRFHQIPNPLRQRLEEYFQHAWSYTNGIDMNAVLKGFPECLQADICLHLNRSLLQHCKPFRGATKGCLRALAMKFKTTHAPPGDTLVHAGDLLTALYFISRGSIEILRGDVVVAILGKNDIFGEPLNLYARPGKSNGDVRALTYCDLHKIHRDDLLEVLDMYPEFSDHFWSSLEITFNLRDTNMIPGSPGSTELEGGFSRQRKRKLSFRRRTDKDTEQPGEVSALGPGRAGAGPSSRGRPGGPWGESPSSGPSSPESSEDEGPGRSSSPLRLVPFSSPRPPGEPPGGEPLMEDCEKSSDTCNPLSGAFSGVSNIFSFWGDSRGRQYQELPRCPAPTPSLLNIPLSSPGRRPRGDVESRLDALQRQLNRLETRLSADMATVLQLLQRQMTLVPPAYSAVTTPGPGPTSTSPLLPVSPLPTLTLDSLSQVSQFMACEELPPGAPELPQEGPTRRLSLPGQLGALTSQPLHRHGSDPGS

central nervous system = experiment: Neurofunctional study (FOB, motor activity) in Sprague-Dawley rat; format: in vivo; details: male rats, 2 h after a 350 mg/kg dose
Pfeiffer = experiment: DLBCL cellular growth inhibition assay; format: cell-based; details: Homo sapiens
[8] = Clinical pharmacokinetics after 25 mg or 75 mg BID administration; format: in vivo, human
Toledo = experiment: DLBCL cellular growth inhibition assay; format: cell-based; details: Homo sapiens
[9] = tested on: PI3K-δ specific basophil activation; experiment: Anti-fCER1 BAT: PI3K-δ specific basophil activation in human whole blood; format: cell-based; details: read-out: Anti-fCER1 BAT (delta) EC50
[10] = Phase 1 study in hematologic malignancies: pharmacokinetics, steady state plasma concentrations; format: in vivo, human
Protocol: (§2) PK and PD markers were evaluated after the first dose (e.g., 8 mg BID) and at steady state. PD activity (PI3K inhibition) in whole blood was evaluated using a basophil activation assay which measured reduction in CD63 expression on the surface of basophils following ex vivo stimulation.

[11] = tested on: hemodynamic and electrocardiographic parameters; experiment: Cardiovascular study in instrumented cynomolgus monkey; format: in vivo; details: male cynomolgus monkeys
Source text: Four non-naive, male monkeys implanted with radiotelemetry transmitters were utilized during the conduct of this study.

[12] = tested on: CD63 expression on the surface of basophils; experiment: Basophil activation assay in whole blood of oncology patients (PI3K inhibition); format: in vivo, human; details: from PK/PD in patients
Protocol: as §2

[13] = Plasma protein binding in vitro, rat; format: in vitro ADME; details: all concentrations tested
[14] = tested on: CD63 expression on the surface of activated CCR3+ basophils; experiment: Basophil activation, ex vivo anti-FcεR1 activation assay, healthy subjects; format: in vivo, human; details: single dose administration
PI3K δ [15] = biological target: T1, PI3K δ; experiment: PI3K-δ suppression level (IC90) quoted with clinical plasma concentrations
Target sequence in this assay (O00329 whole entry, species assumed): as the sequence (O00329 whole entry) above
Target sequence in this assay (P27986 whole entry partner, species assumed): as the sequence (P27986 whole entry partner) above

[16] = multiple doses for 2 weeks (n=36)

For `C[C@H](Nc1ncnc2[nH]cnc12)c1cc2cccc(Cl)c2c(=O)n1-c1ccccc1` [Compound 292], the IC90 (PI3K δ [1]) was 0.361 µg/mL (≈ 0.866 µM), the “increase of Cmax in the presence of ketoconazole” value ([2]; DDI portion, 200 mg ql2h ketoconazole) was “approximately 66%” and the accumulation ([2]; following 14 days of Q12 h oral administration) was “less than 2 fold”. For the same compound, the “dose dependence of exposure (Cmax and AUC)” value ([2]; healthy subjects, across the dose ranges evaluated) was “increased proportionally to dose; also recorded: dose-proportional pharmacokinetics”, the “AUC(0-24)” value ([2]; single dose 1 mg) was 149 (67) ng*hr/mL and the “AUC(0-24)” value ([2]; single dose 2 mg) was 289 (43) ng*hr/mL. The “AUC(0-24)” value ([2]; single dose 5 mg) was 733 (5) ng*hr/mL, the “AUC(0-24)” value ([2]; single dose 10 mg) was 891 (14) ng*hr/mL and the “AUC(0-24)” value ([2]; single dose 20 mg) was 2193 (16) ng*hr/mL. For the same compound, the “AUC(0-24)” value ([2]; single dose 30 mg) was 3263 (38) ng*hr/mL, the IgE ([3]; healthy subjects) was “No increases in IgE” and the “QTcF at any assessment” value ([3]; healthy subjects, serial ECGs) was at most 500 ms. The tolerability ([3]; healthy subjects, single doses up to 30 mg, multiple doses up to 10 mg daily for 14 days) was “well tolerated; also recorded: well-tolerated”, the “headache, subjects” value [3, 16] was 8% and the “myalgia, subjects” value [3, 16] was 6%. The “nasopharyngitis, subjects” value [3, 16] was 6%, the “adverse effect in micronucleus assay” value [4] was “no direct adverse effect” and the “distribution into rat tissues” value [5] was “rapid and extensive”. For the same compound, the “elimination of radiolabelled Compound 292 from tissues” value ([5]; majority of tissues without quantifiable radioactivity at 24 hr) was “rapid”, the “percent free in plasma compared with human plasma” value [6] was “consistently higher” and the “cytotoxicity, sensitivity” value (HH) was “more sensitive”. The “cytotoxicity, sensitivity” value (MJ) was “resistant”, the “cytotoxicity, sensitivity” value (HuT78) was “medium sensitivity” and the EC50 [7] was under 10 nM. For the same compound, the P-gp substrate status (human P-glycoprotein) was “is a P-gp substrate”, the “inhibition of active transport of other P-gp substrates” value (human P-glycoprotein) was “has the potential to inhibit” and the Hill coefficient (hERG channel current) was 1.3. The locomotor activity (central nervous system) was “Significant decreases”, the IC50 (Pfeiffer) was over 50000 nM and the “mean predose steady state plasma concentration” value ([8]; 25 mg BID) was “about 390 ng/ml”. For the same compound, the “time of maximal plasma concentrations following dosing” value ([8]; 25 mg or 75 mg BID) was “around 1 hour”, the AUC versus dose ([8]; doses through 75 mg BID) was “increases proportionally with doses” and the half-life ([8]; human, plasma, oral, both 25 mg and 75 mg BID, read-out: elimination half-life) was 4 to 5 h. For the same compound, the IC50 (Toledo) was over 50000 nM, the EC50 [9] was 10 to 100 nM and the “mean predose steady state plasma concentration” value ([10]; 25 mg BID, C2D1) was 390 ng/mL. For the same compound, the “dose dependence of plasma Cmax and AUC” value ([10]; patients with hematologic malignancies, BID dosing) was “dose-proportional increases; also recorded: dose-proportional PK; also recorded: linear PK profile; also recorded: increases proportionally with doses”, the “time of maximum plasma concentration post-dosing” value ([10]; steady state C2D1, 25 mg and 75 mg BID) was “about 1 hour” and the “effects on hemodynamic or electrocardiographic parameters” value ([11]; single oral dose of 5, 30, and 150 mg/kg) was “No Compound 292-related effects”. The “waveform abnormalities or arrhythmias” value ([11]; up to 150 mg/kg) was “no waveform abnormalities or arrhythmias”, the “dose achieving complete inhibition of PI3K-δ” value [12] was at least 15 mg BID and the “doses that increasingly suppress PI3K-γ” value [12] was at least 25 mg BID. For the same compound, the “percent free in plasma compared with human plasma” value [13] was “consistently higher”, the “dose at which maximal PD response was achieved” value [14] was 5 mg and the IC90 (PI3K δ [15]) was 0.361 µg/mL (≈ 0.866 µM).

— US20160113932A1, “TREATMENT OF CANCERS USING PI3 KINASE ISOFORM MODULATORS” (INFINITY PHARMACEUTICALS, INC., priority 2013, published 2016)
